Conditions: 300 mg QD (n=12)

O=C(Nc1ccc(Oc2ccnc3c2CCN3)c(F)c1)c1c[nH]cc(-c2ccc(F)cc2)c1=O
TRAE Accessory nerve disorder, any grade: 1 (8.3) n (%)
TRAE Accessory nerve disorder, grade 3-4: 0 n (%)
TRAE Activated partial thromboplastin time prolonged, any grade: 1 (8.3) n (%)
TRAE Activated partial thromboplastin time prolonged, grade 3-4: 0 n (%)
TRAE Anaemia, any grade: 0 n (%)
TRAE Anaemia, grade 3-4: 0 n (%)
TRAE Anaesthesia oral, any grade: 0 n (%)
TRAE Anaesthesia oral, grade 3-4: 0 n (%)
TRAE Arrhythmia, any grade: 0 n (%)
TRAE Arrhythmia, grade 3-4: 0 n (%)
TRAE Arthralgia, any grade: 0 n (%)
TRAE Arthralgia, grade 3-4: 0 n (%)
TRAE Asthenia, any grade: 0 n (%)
TRAE Asthenia, grade 3-4: 0 n (%)
TRAE Blister, any grade: 0 n (%)
TRAE Blister, grade 3-4: 0 n (%)
TRAE Chest discomfort, any grade: 1 (8.3) n (%)
TRAE Chest discomfort, grade 3-4: 0 n (%)
TRAE Chronic kidney disease, any grade: 0 n (%)
TRAE Chronic kidney disease, grade 3-4: 0 n (%)
TRAE Constipation, any grade: 2 (16.7) n (%)
TRAE Constipation, grade 3-4: 0 n (%)
TRAE Cough, any grade: 0 n (%)
TRAE Cough, grade 3-4: 0 n (%)
TRAE Decreased Ccr, any grade: 2 (16.7) n (%)
TRAE Decreased Ccr, grade 3-4: 0 n (%)
TRAE Decreased appetite, any grade: 2 (16.7) n (%)
TRAE Decreased appetite, grade 3-4: 0 n (%)
TRAE Diarrhoea, any grade: 1 (8.3) n (%)
TRAE Diarrhoea, grade 3-4: 0 n (%)
TRAE Dizziness, any grade: 1 (8.3) n (%)
TRAE Dizziness, grade 3-4: 0 n (%)
TRAE Dry mouth, any grade: 1 (8.3) n (%)
TRAE Dry mouth, grade 3-4: 0 n (%)
TRAE Dysgeusia, any grade: 1 (8.3) n (%)
TRAE Dysgeusia, grade 3-4: 0 n (%)
TRAE Dyskinesia, any grade: 0 n (%)
TRAE Dyskinesia, grade 3-4: 0 n (%)
TRAE Dysphonia, any grade: 0 n (%)
TRAE Dysphonia, grade 3-4: 0 n (%)
TRAE Dyspnoea, any grade: 0 n (%)
TRAE Dyspnoea, grade 3-4: 0 n (%)
TRAE Electrocardiogram QT prolonged, any grade: 1 (8.3) n (%)
TRAE Electrocardiogram QT prolonged, grade 3-4: 0 n (%)
TRAE Elevated ALT, any grade: 3 (25.0) n (%)
TRAE Elevated ALT, grade 3-4: 0 n (%)
TRAE Elevated AST, any grade: 2 (16.7) n (%)
TRAE Elevated AST, grade 3-4: 0 n (%)
TRAE Elevated D dimer, any grade: 0 n (%)
TRAE Elevated D dimer, grade 3-4: 0 n (%)
TRAE Elevated GGT, any grade: 0 n (%)
TRAE Elevated GGT, grade 3-4: 0 n (%)
TRAE Elevated LDH, any grade: 0 n (%)
TRAE Elevated LDH, grade 3-4: 0 n (%)
TRAE Elevated alpha-HBDH, any grade: 0 n (%)
TRAE Elevated alpha-HBDH, grade 3-4: 0 n (%)
TRAE Elevated bilirubin, any grade: 0 n (%)
TRAE Elevated bilirubin, grade 3-4: 0 n (%)
TRAE Elevated blood creatinine, any grade: 3 (25.0) n (%)
TRAE Elevated blood creatinine, grade 3-4: 0 n (%)
TRAE Elevated creatine phosphokinase, any grade: 0 n (%)
TRAE Elevated creatine phosphokinase, grade 3-4: 0 n (%)
TRAE Elevated serum urea, any grade: 1 (8.3) n (%)
TRAE Elevated serum urea, grade 3-4: 0 n (%)
TRAE Elevated troponin, any grade: 0 n (%)
TRAE Elevated troponin, grade 3-4: 0 n (%)
TRAE Genital rash, any grade: 0 n (%)
TRAE Genital rash, grade 3-4: 0 n (%)
TRAE Haematuria, any grade: 0 n (%)
TRAE Haematuria, grade 3-4: 0 n (%)
TRAE Headache, any grade: 1 (8.3) n (%)
TRAE Headache, grade 3-4: 0 n (%)
TRAE Hyperhidrosis, any grade: 0 n (%)
TRAE Hyperhidrosis, grade 3-4: 0 n (%)
TRAE Hyperlipidaemia, any grade: 0 n (%)
TRAE Hyperlipidaemia, grade 3-4: 0 n (%)
TRAE Hypertension, any grade: 1 (8.3) n (%)
TRAE Hypertension, grade 3-4: 0 n (%)
TRAE Hypoaesthesia oral, any grade: 0 n (%)
TRAE Hypoaesthesia oral, grade 3-4: 0 n (%)
TRAE Hypocalcaemia, any grade: 0 n (%)
TRAE Hypocalcaemia, grade 3-4: 0 n (%)
TRAE Hypotension, any grade: 1 (8.3) n (%)
TRAE Hypotension, grade 3-4: 0 n (%)
